Test results taken from patent US20200031820A1, “3-CARBOXYLIC ACID PYRROLES AS NRF2 REGULATORS” (GLSXOSMITHKLINE INTELLECTUAL PROPERTY DEVELOPMENT LIMITED, priority 2016, published 2020).

System: NQO1 specific enzyme activity in BEAS-2B cells (marker for NRF2 activation)
Experiment: Beas2B NQO1 MTT Assay
Assay type: cell-based
Details: Homo sapiens, NQO1 specific activity induction, 48 hours with compound
Text: NAD(P)H:quinone oxidoreductase 1 (NQO1), also called DT diaphorase, is a homodimeric FAD-containing enzyme that catalyses obligatory NAD(P)H-dependent two-electron reductions of quinones and protects cells against the toxic and neoplastic effects of free radicals and reactive oxygen species arising from one-electron reductions. The transcription of NQO1 is finely regulated by NRF2, and thus NQO1 activity is a good marker for NRF2 activation. On day one, frozen BEAS-2B cells (ATCC) were thawed in a water bath, counted, and re-suspended at a concentration of 250,000 cells/mL. Fifty microliters of cells were plated in 384 well black clear-bottomed plates. Plates were incubated at 37° C., 5% CO2 overnight. On day two, plates were centrifuged and 50 nL of compound or controls were added to the cells. Plates were then incubated at 37° C., 5% CO2 for 48 hours. On day four, medium was aspirated from the plate and crude cell lysates were made by adding 13 uL of 1× Cell Signaling Technologies lysis buffer with 1 Complete, Mini, EDTA-free Protease Inhibitor Tablet (Roche) for each 10 mL of lysis buffer. After lysis plates were incubated for 20 minutes at room temperature. Two microliters of lysate were removed for use in Cell Titer Glo assay (Promega) and MTT cocktail was prepared (Prochaska et. al. 1998) for measurement of NQO1 activity. Fifty microliters of MTT cocktail was added to each well, plate was centrifuged, and analysed on an Envision plate reader (Perkin Elmer) using Absorbance 570 nm label for 30 minutes. Product formation was measured kinetically and the pEC50 of NQO1 specific activity induction was calculated by plotting the change in absorbance (Delta OD/min) versus the log of compound concentration followed by 3-parameter fitting.
EC50s <1 nM (+++++), EC50s 10 nM-1 nM (++++), EC50s 10-100 nM (+++), EC50s 100 nM-1 μM (++), EC50s 1-10 μM (+), EC50s >10 μM (−), or were not determined (ND).

SMILES | EC50 [nM]
C[C@H]1Cc2ccc(C(F)(F)F)cc2S(=O)(=O)N(Cc2cccc(-n3ccc(C(=O)O)c3[C@@H]3C[C@H]3c3cn(C)nn3)c2)C1 [Example 4, 1-(3-(((S)-4-methyl-1,1-dioxido-8-(trifluoromethyl)-4,5-dihydrobenzo[f][1,2]thiazepin-2(3H)-yl)methyl)phenyl)-2-((1R,2R)-2-(1-methyl-1H-1,2,3-triazol-4-yl)cyclopropyl)-1H-pyrrole-3-carboxylic acid] | 1 to 10
CCC[C@@H]1CCCCN1C(=O)c1cccc(-c2cccc(-n3ccc(C(=O)O)c3[C@@H]3C[C@H]3c3cn(C)nn3)c2)c1F [Example 16, 1-(2′-fluoro-3′-((R)-2-propylpiperidine-1-carbonyl)-[1,1′-biphenyl]-3-yl)-2-((1R,2R)-2-(1-methyl-1H-1,2,3-triazol-4-yl)cyclopropyl)-1H-pyrrole-3-carboxylic acid] | 1 to 10
C[C@H](Oc1cccc(-c2cccc(-n3ccc(C(=O)O)c3[C@@H]3C[C@H]3c3cn(C)nn3)c2)c1)C1CCCCC1 [Example 18, 1-(3′-((S)-1-cyclohexylethoxy)-[1,1′-biphenyl]-3-yl)-2-((1R,2R)-2-(1-methyl-1H-1,2,3-triazol-4-yl)cyclopropyl)-1H-pyrrole-3-carboxylic acid] | 10 to 100
